Measured values from ChEMBL document CHEMBL4613277, “Improving the Potency of N-Aryl-2,5-dimethylpyrroles against Multidrug-Resistant and Intracellular Mycobacteria” (ACS Med Chem Lett, 2020).
In brackets after ≈: the same amount, converted by molar mass. Activity calls are given as the source filed them. The rule behind the calls is not given here.

Legend:
[1] = test system: Mycobacterium tuberculosis; assay: Antimycobacterial activity against Mycobacterium tuberculosis H37Rv assessed as reduction in bacterial growth incubated for 7 days by resazurin based assay; assay type: functional; conditions: 168 h
[2] = Selectivity index, ratio of GI50 for mouse Macrophage cells to MIC for Mycobacterium tuberculosis H37Rv; assay type: toxicity
[3] = Cytotoxicity against mouse macrophage cells assessed as growth inhibition incubated for 48 hrs by resazurin based assay; assay type: cell-based
[4] = Acute toxicity in Galleria mellonella wax moth larve assessed as adverse effect at 12 mg/kg observed for 5 days; assay type: organism-based; conditions: in vivo, 120 h
[5] = test system: Mycolicibacterium aurum; assay: Antimycobacterial activity against Mycobacterium aurum assessed as reduction in bacterial growth incubated for 48 hrs by HT-SPOTi assay; assay type: functional
[6] = test system: Mycobacterium tuberculosis; assay: Antimycobacterial activity against Mycobacterium tuberculosis H37Rv infected in mouse J774.1 cells assessed as reduction in bacterial colony at 1 to 10 times MIC incubated for 72 hrs by colony counting method; assay type: functional, organism-based
[7] = test system: Mycolicibacterium aurum; assay: Antimycobacterial activity against Mycobacterium aurum infected in mouse RAW264.7 cells assessed as reduction in bacterial growth incubated for 48 hrs by HT-SPOTi assay; assay type: functional
[8] = test system: Mycobacterium tuberculosis; assay: Bacteriostatic activity against Mycobacterium tuberculosis H37Rv assessed as reduction in bacterial growth at 0.32 ug/ml incubated for 3 to 4 weeks by time kill assay; assay type: functional, organism-based
[9] = Acute toxicity in Galleria mellonella wax moth larve assessed as mortality by measuring melanization at 12 mg/kg observed for 5 days; assay type: organism-based; conditions: in vivo, 120 h
[10] = test system: Mycobacterium tuberculosis; assay: Bacteriostatic activity against Mycobacterium tuberculosis H37Rv assessed as reduction in bacterial growth at 0.07 ug/ml incubated for 3 to 4 weeks by time kill assay; assay type: functional, organism-based
[11] = test system: Mycobacterium tuberculosis; assay: Bactericidal activity against Mycobacterium tuberculosis H37Rv assessed as reduction in bacterial growth at 0.35 ug/ml incubated for 3 to 4 weeks by time kill assay; assay type: functional, organism-based

Clc1ccc2nc(CNCc3ccccc3)cn2c1
MIC [1]: > 25 µg/mL

Cc1nn(-c2ccccc2)c(C)c1CNC1CCCCC1
MIC [1]: > 25 µg/mL

Cc1cc(CNC2CCCCC2)c(C)n1-c1ccc(C(C)C)cc1
MIC [1]: 0.12 to 0.25 µg/mL (≈ 0.37 to 0.77 µM) | selectivity ratio [2]: 23 to 48 | GI50 at 48 h [3]: 5.8 µg/mL (≈ 17.9 µM)

Cc1cc(CNCC2CCCCC2)c(C)n1-c1ccc(Cl)cc1
Activity [4]: Non-Toxic | MIC [1]: 0.06 to 0.3 µg/mL (≈ 0.181 to 0.907 µM) | selectivity ratio [2]: 39 to 195 | MIC [5]: 3.9 µg/mL (≈ 11.8 µM) | inhibition [6]: Active | GI50 at 48 h [3]: 11.7 µg/mL (≈ 35.4 µM) | MIC [7]: 1.95 µg/mL (≈ 5.89 µM) | Activity [8]: Active | Activity [9]: Non-Toxic

COc1ccc(-n2c(C)cc(CNC3CCCCC3)c2C)cc1
MIC [1]: 0.12 to 0.25 µg/mL (≈ 0.384 to 0.8 µM) | selectivity ratio [2]: 16 to 32 | GI50 at 48 h [3]: 3.9 µg/mL (≈ 12.5 µM)

Cc1cc(CN[C@H]2C[C@@H]3CC[C@H]2C3)c(C)n1-c1ccc(Cl)cc1
MIC [1]: 0.25 to 0.5 µg/mL (≈ 0.76 to 1.52 µM) | selectivity ratio [2]: 47 to 94 | GI50 at 48 h [3]: 23.4 µg/mL (≈ 71.1 µM)

CO[C@H]1/C=C/O[C@@]2(C)Oc3c(C)c(O)c4c(O)c(c(/C=N/N5CCN(C)CC5)c(O)c4c3C2=O)NC(=O)/C(C)=C\C=C\[C@H](C)[C@H](O)[C@@H](C)[C@@H](O)[C@@H](C)[C@H](OC(C)=O)[C@@H]1C [RIFAMPIN]
MIC [1]: > 0.06 µg/mL

NNC(=O)c1ccncc1 [ISONIAZID]
MIC [1]: 0.24 µg/mL (≈ 1.75 µM) | inhibition [6]: Active

COc1c(N2C[C@@H]3CCCN[C@@H]3C2)c(F)cc2c(=O)c(C(=O)O)cn(C3CC3)c12
Activity [10]: inactive | inhibition [6]: Active | Activity [11]: Active

Cc1nn(-c2ccc(Cl)cc2)c(C)c1CNCc1ccccc1
MIC [1]: > 25 µg/mL

Clc1ccc2nc(CNC3CCCCC3)cn2c1
MIC [1]: > 25 µg/mL

Clc1ccc(-n2cc(CNC3CCCCC3)nn2)cc1
MIC [1]: > 25 µg/mL

Cc1nn(-c2ccc(Cl)cc2)c(C)c1CNC1CCCCC1
MIC [1]: > 25 µg/mL

Clc1ccc(-n2cc(CNCc3ccccc3)nn2)cc1
MIC [1]: > 25 µg/mL
